US20240148888A1, “INTERCELLULAR ADHESION MOLECULE 1 (ICAM1) ANTIBODY DRUG CONJUGATE AND USES THEREOF” (priority 2021, published 2024)

What was measured:
MDA-MB-436 tumors = test: In vivo efficacy, orthotopic TNBC model, standard setting; details: 5 mg/kg equivalent dosage
Procedure: For the in vivo efficacy studies, orthotopic TNBC tumors (MDA-MB-436 or MDA-MB-231) were established in 6-8 weeks old female nude mice as described above. Tumors were grown to reach 100 mm^3 for standard setting treatment or 500 mm^3 for late-stage treatment. […] Tumor growth was monitored weekly using caliper. At the endpoint, animals were euthanized with CO2 and orthotopic tumors were excised to measure their mass.

[1] = biological target: intercellular adhesion molecule 1 (ICAM1) from Homo sapiens (Homo sapiens) (UniProt P05362); test: cell-based or functional assay
MDA-MB-231 cells = details: reported in literature; cited from earlier work
refractory TNBC = refractory TNBC patients; cited from earlier work

Chain of intercellular adhesion molecule 1 (ICAM1) from Homo sapiens (Homo sapiens) (P05362 28-532 limits assumed): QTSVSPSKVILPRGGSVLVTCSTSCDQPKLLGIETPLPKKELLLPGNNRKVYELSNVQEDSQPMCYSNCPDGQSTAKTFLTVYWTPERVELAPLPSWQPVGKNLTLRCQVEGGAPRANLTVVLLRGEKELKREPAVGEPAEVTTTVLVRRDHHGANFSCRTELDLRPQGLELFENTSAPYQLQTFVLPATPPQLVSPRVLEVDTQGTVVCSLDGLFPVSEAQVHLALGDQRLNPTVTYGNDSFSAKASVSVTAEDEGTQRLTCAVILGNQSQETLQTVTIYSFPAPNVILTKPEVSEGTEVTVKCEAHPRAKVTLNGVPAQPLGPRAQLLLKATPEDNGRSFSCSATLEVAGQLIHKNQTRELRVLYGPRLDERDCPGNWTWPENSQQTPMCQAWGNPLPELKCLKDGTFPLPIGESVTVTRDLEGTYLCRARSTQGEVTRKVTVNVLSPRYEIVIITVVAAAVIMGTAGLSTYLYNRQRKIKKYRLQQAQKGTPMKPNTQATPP

## COc1cccc2c1C(=O)c1c(O)c3c(c(O)c1C2=O)C[C@@](O)(C(=O)CO)C[C@@H]3O[C@H]1C[C@H](N)[C@H](O)[C@H](C)O1 [free Dox, Doxorubicin]
MDA-MB-436 tumors
  Anti-tumor efficacy: very limited efficacy

## Phycoerythrin (PE)-conjugated anti-human ICAM1 antibody (Clone: HCD54)
[1]
  cellular internalization rate in three TNBC cell lines relative to MCF10A cells (imaging flow cytometry): 42 to 109 fold
  cellular internalization rate in three TNBC cell lines relative to non-targeting IgG (imaging flow cytometry): 21 to 129 fold

## sacituzumab govitecan
MDA-MB-231 cells
  Resistance of MDA-MB-231 cells: resistant
Refractory TNBC
  Median progression-free survival: 5.5 months
  Response rate: ~33%
